From patent US20050208496A1, “Methods of testing for bronchial asthma or chronic obstructive pulmonary disease” (Genox Research, Inc., priority 2002, published 2005)
Where two headings read alike, the source gives them in different places.

Tested on: respiratory epithelial cells

## IL-13: human IL-13 (Peprotech, Inc.) added to the medium at 50 ng/mL to stimulate respiratory epithelial cells
AI method, day 3 and day 7, both Lots 1 and 2
  pendrin gene expression level, factor of increase in response to IL-13 stimulation: ten or more
HG-U95A, lot 1, Day 3, AI
  AKR1C1 (32805_at) expression change upon IL-13 stimulation: −2.7
  ALDH3B2 (37956_at) expression change upon IL-13 stimulation: −7.4
  AP1G1 (35275_at) expression change upon IL-13 stimulation: −3.6
  CA12 (36454_at) expression change upon IL-13 stimulation: −4
  CHL1 (34193_at) expression change upon IL-13 stimulation: −2.5
  CMAH (39317_at) expression change upon IL-13 stimulation: −2.2
  E48 (36284_at) expression change upon IL-13 stimulation: −10.3
  EPHX1 (38790_at) expression change upon IL-13 stimulation: −3
  FMO2.3 (34935_at) expression change upon IL-13 stimulation: −2.2
  GLUL (40522_at) expression change upon IL-13 stimulation: −3.8
  GSTA4 (40508_at) expression change upon IL-13 stimulation: −8
  HGNC, keratinocyte transglutaminase gene (35947_at) expression change upon IL-13 stimulation: −2
  KIAA0843 (39597_at) expression change upon IL-13 stimulation: −2.2
  LGALS1 (33412_at) expression change upon IL-13 stimulation: −2
  PYGL (37215_at) expression change upon IL-13 stimulation: −2.2
  SCYD1 (823_at) expression change upon IL-13 stimulation: −2.2
  SDC1 (38127_at) expression change upon IL-13 stimulation: −2.2
  TGFBI (1385_at) expression change upon IL-13 stimulation: −3.8
HG-U95A, lot 1, Day 3, IMM
  ADH1A (34637_f_at) expression change upon IL-13 stimulation: −3
  AP1G1 (35275_at) expression change upon IL-13 stimulation: −2.8
  CA12 (36454_at) expression change upon IL-13 stimulation: −3.5
  CLDN10 (39579_at) expression change upon IL-13 stimulation: −2.3
  GLUL (40522_at) expression change upon IL-13 stimulation: −2.9
  GPX3 (770_at) expression change upon IL-13 stimulation: −3.2
  KIAA0843 (39597_at) expression change upon IL-13 stimulation: −2.3
  TGFBI (1385_at) expression change upon IL-13 stimulation: −2.2
HG-U95A, lot 1, Day 7, AI
  ADH1A (34637_f_at) expression change upon IL-13 stimulation: −6.1
  ADH1C (36247_f_at) expression change upon IL-13 stimulation: −4.1
  AKR1C1 (32805_at) expression change upon IL-13 stimulation: −3.2
  ALDH3B2 (37956_at) expression change upon IL-13 stimulation: −6.8
  AP1G1 (35275_at) expression change upon IL-13 stimulation: −3.9
  ATP10B (37415_at) expression change upon IL-13 stimulation: −3.2
  BLMH (37700_at) expression change upon IL-13 stimulation: −2.1
  CA12 (36454_at) expression change upon IL-13 stimulation: −6.3
  CLDN10 (39579_at) expression change upon IL-13 stimulation: −4.6
  CMAH (39317_at) expression change upon IL-13 stimulation: −4.4
  CP (39008_at) expression change upon IL-13 stimulation: −3.6
  CRYM (38285_at) expression change upon IL-13 stimulation: −4.2
  CSPG2 (38112_g_at) expression change upon IL-13 stimulation: −2.1
  DHCR24 (36658_at) expression change upon IL-13 stimulation: −2.3
  DSG3 (33693_at) expression change upon IL-13 stimulation: −3.6
  E48 (36284_at) expression change upon IL-13 stimulation: −7.2
  EPHX1 (38790_at) expression change upon IL-13 stimulation: −3
  FACL2 (40082_at) expression change upon IL-13 stimulation: −2.7
  FMO3 (40665_at) expression change upon IL-13 stimulation: −2.1
  GLUL (40522_at) expression change upon IL-13 stimulation: −3
  GPX3 (770_at) expression change upon IL-13 stimulation: −6.5
  GSTA4 (40508_at) expression change upon IL-13 stimulation: −3.8
  HGNC, keratinocyte transglutaminase gene (35947_at) expression change upon IL-13 stimulation: −3.2
  KIAA0843 (39597_at) expression change upon IL-13 stimulation: −2.6
  KIAA0878 (32215_1_at) expression change upon IL-13 stimulation: −3.4
  KIAA1055 (39400_at) expression change upon IL-13 stimulation: −5.3
  LCE (40943_at) expression change upon IL-13 stimulation: −2
  LGALS1 (33412_at) expression change upon IL-13 stimulation: −6.8
  PYGL (37215_at) expression change upon IL-13 stimulation: −3.2
  SCYD1 (823_at) expression change upon IL-13 stimulation: −8.5
  TGFBI (1385_at) expression change upon IL-13 stimulation: −5.3
  TNFAIP2 (38631_at) expression change upon IL-13 stimulation: −4.4
HG-U95A, lot 1, Day 7, IMM
  AKR1C1 (32805_at) expression change upon IL-13 stimulation: −3.1
  AP1G1 (35275_at) expression change upon IL-13 stimulation: −3.7
  CA12 (36454_at) expression change upon IL-13 stimulation: −4
  CHL1 (34193_at) expression change upon IL-13 stimulation: 2.1
  CP (39008_at) expression change upon IL-13 stimulation: −2.6
  FMO2.3 (34935_at) expression change upon IL-13 stimulation: −2.4
  GPX3 (770_at) expression change upon IL-13 stimulation: −6
  HGNC, keratinocyte transglutaminase gene (35947_at) expression change upon IL-13 stimulation: −3.7
  KIAA0878 (32215_1_at) expression change upon IL-13 stimulation: −2.3
  PYGL (37215_at) expression change upon IL-13 stimulation: −2.7
  TGFBI (1385_at) expression change upon IL-13 stimulation: −3
HG-U95A, lot 2, Day 3, AI
  ADH1C (36247_f_at) expression change upon IL-13 stimulation: −6.1
  AKR1C1 (32805_at) expression change upon IL-13 stimulation: −2.4
  ALDH3B2 (37956_at) expression change upon IL-13 stimulation: −6.9
  AP1G1 (35275_at) expression change upon IL-13 stimulation: −2.8
  CA12 (36454_at) expression change upon IL-13 stimulation: −6.5
  CHL1 (34193_at) expression change upon IL-13 stimulation: −4.3
  CLDN10 (39579_at) expression change upon IL-13 stimulation: −5.4
  CMAH (39317_at) expression change upon IL-13 stimulation: −7.4
  CP (39008_at) expression change upon IL-13 stimulation: −3.9
  DHCR24 (36658_at) expression change upon IL-13 stimulation: −2.1
  E48 (36284_at) expression change upon IL-13 stimulation: −3.8
  EPHX1 (38790_at) expression change upon IL-13 stimulation: −3
  FMO2.3 (34935_at) expression change upon IL-13 stimulation: −3.7
  FMO3 (40665_at) expression change upon IL-13 stimulation: −2.3
  GLUL (40522_at) expression change upon IL-13 stimulation: −3.5
  GPX3 (770_at) expression change upon IL-13 stimulation: −12.2
  GSTA4 (40508_at) expression change upon IL-13 stimulation: −2.8
  HGNC, keratinocyte transglutaminase gene (35947_at) expression change upon IL-13 stimulation: −2.7
  KIAA0843 (39597_at) expression change upon IL-13 stimulation: −2.1
  KIAA0878 (32215_1_at) expression change upon IL-13 stimulation: −2.4
  LGALS1 (33412_at) expression change upon IL-13 stimulation: −2.6
  PYGL (37215_at) expression change upon IL-13 stimulation: −2.2
  SCYD1 (823_at) expression change upon IL-13 stimulation: −2.1
  TGFBI (1385_at) expression change upon IL-13 stimulation: −3.1
  TNFAIP2 (38631_at) expression change upon IL-13 stimulation: −2.4
HG-U95A, lot 2, Day 7, AI
  ADH1A (34637_f_at) expression change upon IL-13 stimulation: −20.5
  ADH1C (36247_f_at) expression change upon IL-13 stimulation: −14.2
  ALDH3B2 (37956_at) expression change upon IL-13 stimulation: −27.6
  AP1G1 (35275_at) expression change upon IL-13 stimulation: −2.6
  ATP10B (37415_at) expression change upon IL-13 stimulation: −3
  BLMH (37700_at) expression change upon IL-13 stimulation: −2.5
  CA12 (36454_at) expression change upon IL-13 stimulation: −3
  CHL1 (34193_at) expression change upon IL-13 stimulation: −7.3
  CLDN10 (39579_at) expression change upon IL-13 stimulation: −5.4
  CMAH (39317_at) expression change upon IL-13 stimulation: −14.4
  CP (39008_at) expression change upon IL-13 stimulation: −6.2
